Test results: the supplement of paper PMC8967900

How the values were obtained:
Assay in all cases: selective drug sensitivity score (sDSS, relative to normal bone marrow) (sDSS (score)); higher = more potent and effective on the cell line relative to normal bone marrow cells
Settings in all cases: 72 h
KARPAS-45 = test system: KARPAS-45
MOLT-4 = test system: MOLT-4
PF-382 = test system: PF-382
KASUMI-9 = test system: KASUMI-9
380 = test system: 380
TMD5 = test system: TMD5
HPB-ALL = test system: HPB-ALL
KOPN-8 = test system: KOPN-8
CCRF-CEM = test system: CCRF-CEM
TANOUE = test system: TANOUE
RCH-ACV = test system: RCH-ACV
P12-ICHIKAWA = test system: P12-ICHIKAWA
KASUMI-10 = test system: KASUMI-10
CCRF-HSB2 = test system: CCRF-HSB2
COG-LL-394h = test system: COG-LL-394h
MHH-CALL-4 = test system: MHH-CALL-4
MN-60 = test system: MN-60
COG-LL-332h = test system: COG-LL-332h
ALL-PO = test system: ALL-PO
DND-41 = test system: DND-41
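Note: ALL cell lines in 384-well plates, five doses spanning 10,000-fold, each plate scaled between vehicle and 100 µmol/L benzalkonium chloride controls, sDSS an adapted area-under-curve metric.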

Row | SMILES | selective drug sensitivity score (KARPAS-45) | selective drug sensitivity score (MOLT-4) | selective drug sensitivity score (PF-382) | selective drug sensitivity score (KASUMI-9) | selective drug sensitivity score 380 | selective drug sensitivity score (TMD5) | selective drug sensitivity score (HPB-ALL) | selective drug sensitivity score (KOPN-8) | selective drug sensitivity score (CCRF-CEM) | selective drug sensitivity score (TANOUE) | selective drug sensitivity score (RCH-ACV) | selective drug sensitivity score (P12-ICHIKAWA) | selective drug sensitivity score (KASUMI-10) | selective drug sensitivity score (CCRF-HSB2) | selective drug sensitivity score (COG-LL-394h) | selective drug sensitivity score (MHH-CALL-4) | selective drug sensitivity score (MN-60) | selective drug sensitivity score (COG-LL-332h) | selective drug sensitivity score (ALL-PO) | selective drug sensitivity score (DND-41)
1 | CN1CCN(C(=O)c2ccc3cc(CCNc4ncnc5ccc(C#N)cc45)ccc3c2)CC1 [Senexin_B] (top concentration 1000 nM) | 1.4 | -0.6 | -0.1 | -0.6 | -0.6 | -0.6 | -0.6 | -0.6 | 1.7 | 1.1 | 2 | 0.4 | 4.5 | 3.8 | 1 | -0.6 | 1.4 | 0.6 | -0.6 | -0.6
2 | Clc1ccccc1C(c1ccccc1)(c1ccccc1)n1cccn1 [TRAM-34] (top concentration 1000 nM) | -0.08 | -0.08 | -0.08 | 2.52 | -0.08 | -0.08 | -0.08 | -0.08 | -0.08 | -0.08 | -0.08 | -0.08 | -0.08 | -0.08 | -0.08 | -0.08 | -0.08 | -0.08 | -0.08 | -0.08
3 | C=CC[C@@H]1/C=C(\C)C[C@H](C)C[C@H](OC)[C@H]2O[C@@](O)(C(=O)C(=O)N3CCCC[C@H]3C(=O)O[C@H](/C(C)=C/[C@@H]3CC[C@@H](O)[C@H](OC)C3)[C@H](C)[C@@H](O)CC1=O)[C@H](C)C[C@@H]2OC [Tacrolimus] (top concentration 10000 nM) | 2.18 | 1.38 | 0.78 | 12.1 | 1.88 | 13.5 | 0.28 | 4.68 | 2.78 | -0.72 | 10.7 | 1.58 | -0.72 | 3.38 | 3.08 | -0.12 | -0.32 | 0.18 | 2.08 | 0.68
4 | CCN(c1cc(-c2ccc(CN3CCOCC3)cc2)cc(C(=O)NCc2c(C)cc(C)[nH]c2=O)c1C)C1CCOCC1 [Tazemetostat] (top concentration 10000 nM) | 1.32 | -0.08 | -0.08 | 0.92 | -0.08 | -0.08 | -0.08 | -0.08 | 1.02 | -0.08 | -0.08 | 0.02 | -0.08 | 1.42 | -0.08 | -0.08 | -0.08 | -0.08 | 0.32 | 0.02
5 | COc1cc2c(Nc3ccc(Cl)c(Cl)c3F)ncnc2cc1OC[C@@H]1C[C@@H]2CN(C)C[C@@H]2C1 [Tesevatinib] (top concentration 1000 nM) | 0.74 | -0.86 | -1.06 | 0.74 | -0.96 | 3.24 | 0.64 | -0.86 | 1.34 | -1.36 | 0.64 | -0.46 | -1.06 | 3.44 | -0.36 | 2.34 | 0.24 | -0.86 | 2.34 | 1.44
6 | O=C1CCC(N2C(=O)c3ccccc3C2=O)C(=O)N1 (stereo not given) [Thalidomide] (top concentration 10000 nM) | -0.14 | -0.14 | -0.14 | -0.14 | -0.14 | -0.14 | -0.14 | -0.14 | -0.14 | -0.14 | -0.14 | -0.14 | -0.14 | -0.14 | -0.14 | -0.14 | -0.14 | -0.14 | -0.14 | -0.14
7 | O=C1NC(=O)[C@@H](c2cn3c4c(cccc24)CCC3)[C@@H]1c1c[nH]c2ccccc12 [Tivantinib] (top concentration 1000 nM) | 4.08 | 3.28 | 2.78 | 5.38 | 6.18 | 5.38 | 2.88 | 3.08 | 3.98 | -1.32 | 4.28 | 3.68 | 1.98 | 3.58 | -0.42 | 4.88 | 3.78 | 3.48 | 2.08 | 0.78
8 | C[C@@H]1CCN(C(=O)CC#N)C[C@@H]1N(C)c1ncnc2[nH]ccc12 [Tofacitinib] (top concentration 5000 nM) | -7.86 | -7.86 | -7.36 | -7.86 | -7.86 | -7.86 | -7.86 | -7.66 | -7.86 | -7.86 | -7.86 | -7.86 | -7.86 | -3.56 | -7.86 | -4.96 | -7.86 | -7.86 | -7.86 | 1.74
9 | COc1cc2c(NC3CCN(C(C)C)CC3)nc(C3CCCCC3)nc2cc1OCCCN1CCCC1 [UNC0638] (top concentration 10000 nM) | 2.36 | -3.74 | -0.54 | -1.64 | 0.06 | -4.84 | -3.44 | -4.44 | 0.46 | -5.14 | 0.66 | -2.84 | -3.34 | 0.16 | 0.16 | -3.94 | -2.64 | 0.66 | -1.74 | 3.36
10 | CCCCNc1ncc(C(=O)NCc2ccc(-n3ccnc3)cc2)c(NC2CCC(O)CC2)n1 (stereo not given) [UNC2881] (top concentration 2500 nM) | 0.5 | 0.4 | 0 | 0 | 0 | 0.5 | 0 | 0.2 | 0 | 0 | 0.4 | 0 | 4.9 | 0 | 0 | 0.5 | 0 | 0.1 | 7.2 | 0
11 | CC[C@@H]1CN(C(=O)NCC(F)(F)F)C[C@@H]1c1cnc2cnc3[nH]ccc3n12 [Upadacitinib] (top concentration 10000 nM) | -7.16 | -7.16 | -6.06 | -2.76 | -0.16 | -7.16 | -7.16 | -7.16 | -4.66 | -6.86 | -7.16 | -7.16 | -7.16 | -5.06 | -7.16 | -6.46 | -7.16 | -6.66 | -7.16 | 0.84
12 | O=C(O)CC1CC(c2ccccc2)=NO1 (stereo not given) [VGX-1027] (top concentration 10000 nM) | -0.04 | -0.04 | -0.04 | -0.04 | -0.04 | -0.04 | -0.04 | -0.04 | -0.04 | -0.04 | -0.04 | -0.04 | -0.04 | -0.04 | -0.04 | -0.04 | -0.04 | -0.04 | -0.04 | -0.04
13 | CCCCC(=O)OCC(=O)[C@]1(O)Cc2c(O)c3c(c(O)c2[C@@H](O[C@H]2C[C@H](NC(=O)C(F)(F)F)[C@H](O)[C@H](C)O2)C1)C(=O)c1c(OC)cccc1C3=O [Valrubicin] (top concentration 5000 nM) | -2.62 | 10.8 | 1.48 | 5.68 | 13 | 4.18 | -4.12 | 10.2 | 10.9 | -12.7 | 11.8 | 8.48 | 8.48 | 15.6 | 7.78 | 7.28 | -3.92 | 11.2 | -2.62 | -1.02
14 | CCc1c(C(=O)C(N)=O)c2c(OCC(=O)O)cccc2n1Cc1ccccc1 [Varespladib] (top concentration 10000 nM) | -0.84 | -0.84 | -0.84 | -0.84 | -0.84 | -0.84 | -0.84 | -0.84 | -0.84 | -0.84 | -0.84 | -0.84 | -0.84 | 0.36 | -0.84 | 3.56 | -0.84 | -0.64 | -0.84 | -0.84
15 | CC1(C)CCC(CN2CCN(c3ccc(C(=O)NS(=O)(=O)c4ccc(NCC5CCOCC5)c([N+](=O)[O-])c4)c(Oc4cnc5[nH]ccc5c4)c3)CC2)=C(c2ccc(Cl)cc2)C1 [Venetoclax] (top concentration 1000 nM) | 9.5 | 8.88e-16 | -4.1 | 25.4 | 29 | 20.8 | -0.9 | 28.9 | -1.8 | -4.4 | -1.3 | -2.4 | 29.5 | -2.9 | 4.5 | 14.2 | -4.4 | -3.3 | 30.2 | 2.1
16 | CCCCOc1nc(N)c2c(n1)N(Cc1cccc(CN3CCCC3)c1)CC(=O)N2 [Vesatolimod] (top concentration 10000 nM) | -3.52 | -3.52 | -3.52 | -2.92 | -3.52 | -3.52 | -3.52 | -3.22 | -3.52 | -3.32 | -3.52 | -3.52 | -3.52 | -3.52 | -3.32 | -3.52 | -2.32 | -3.52 | -3.52 | -2.12
17 | CCC1=C[C@@H]2CN(C1)Cc1c([nH]c3ccccc13)[C@@](C(=O)OC)(c1cc3c(cc1OC)N(C)[C@H]1[C@@](O)(C(=O)OC)[C@H](OC(C)=O)[C@]4(CC)C=CCN5CC[C@]31[C@@H]54)C2 [Vinorelbine] (top concentration 10000 nM) | 17.8 | 20.6 | 11 | 24.2 | 23.3 | 13.4 | 14.6 | 25.8 | 17.8 | -8.32 | 25.1 | 15.9 | 15.7 | 20.1 | 9.58 | 8.98 | 1.68 | 20.5 | 17.5 | 11.8
